In the assay the test system is T1, SN243.
T1 construct: purified
The assay can be described thus: pNP release, absorbance […] nm in microfluidic droplets. The assay is classed as biochemical, metagenome: source not printed. Particulars: 100 mM Tris pH 8.0, 150 mM NaCl, room temperature, substrate in DMSO.

Regarding `O=C(O)[C@H]1O[C@@H](Oc2ccc([N+](=O)[O-])cc2)[C@H](O)[C@@H](O)[C@@H]1O` [pNP-β-GlcA], under “detection points 1-4 only”, the Michaelis-Menten constant (Km) – broadly, the substrate concentration at which the rate is half of its maximum – came to 0.015 mM.

As to `O=C(O)C1OC(Oc2ccc([N+](=O)[O-])cc2)C(O)C(O)C1O` (stereo not drawn) [pNP-β-GalA], the Km (mean of 12 datasets) came out at 1.6 ± 0.3 mM.

Regarding `O=[N+]([O-])c1ccc(O[C@@H]2OC[C@@H](O)[C@H](O)[C@H]2O)cc1` [pNP-β-Xyl], the Km (mean of 12 datasets) stood at 21.9 ± 1.6 mM.

With `O=[N+]([O-])c1ccc(O[C@@H]2O[C@H](CO)[C@@H](O)[C@H](O)[C@H]2O)cc1` [pNP-β-Glc], the Km (mean of 12 datasets) is 36.8 ± 9 mM.

Consider `O=[N+]([O-])c1ccc(O[C@@H]2O[C@H](CO)[C@H](O)[C@H](O)[C@H]2O)cc1` [pNP-β-Gal], for which the Michaelis-Menten constant (Km) (mean of 12 datasets) was 75.8 ± 7.7 mM.

The record behind these values is article PMC9730296, “High-Throughput Steady-State Enzyme Kinetics Measured in a Parallel Droplet Generation and Absorbance Detection Platform” (Analytical Chemistry, 2022).
